The source of these data is ChEMBL document CHEMBL1133261, “Synthesis and biological evaluation of 1,3,4-triaryl-3-pyrrolin-2-ones, a new class of selective cyclooxygenase-2 inhibitors” (Bioorg Med Chem Lett, 2000).

The target of this assay is Prostaglandin G/H synthase 1 (Homo sapiens, UniProt P23219). The assay is described as follows: Biochemical index for Prostaglandin G/H synthase 1 measured as, thromboxane 2 (TXB2) levels following blood coagulation. The format is tissue-based.
Chain of Prostaglandin G/H synthase 1 (P23219 whole entry): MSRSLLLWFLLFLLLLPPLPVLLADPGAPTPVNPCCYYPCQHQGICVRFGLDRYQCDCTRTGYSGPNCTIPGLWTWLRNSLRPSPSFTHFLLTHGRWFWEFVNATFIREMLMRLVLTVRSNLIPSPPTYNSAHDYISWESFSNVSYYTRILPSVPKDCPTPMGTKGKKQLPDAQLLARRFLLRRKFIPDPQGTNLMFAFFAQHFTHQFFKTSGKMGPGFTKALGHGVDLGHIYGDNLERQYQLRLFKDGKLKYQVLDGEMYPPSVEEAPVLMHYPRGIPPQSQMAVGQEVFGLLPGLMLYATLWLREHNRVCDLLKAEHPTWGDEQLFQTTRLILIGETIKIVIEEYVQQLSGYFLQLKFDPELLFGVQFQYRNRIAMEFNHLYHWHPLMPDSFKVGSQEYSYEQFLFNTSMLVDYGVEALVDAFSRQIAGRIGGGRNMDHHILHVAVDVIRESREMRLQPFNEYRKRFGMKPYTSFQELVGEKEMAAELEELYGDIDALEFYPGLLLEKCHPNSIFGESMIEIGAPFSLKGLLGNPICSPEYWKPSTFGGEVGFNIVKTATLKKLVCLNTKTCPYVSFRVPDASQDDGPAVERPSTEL

`COc1ccc(C2=C(c3ccc(S(C)(=O)=O)cc3)CN(c3cccc(F)c3)C2=O)cc1` showed an IC50 of 2.5 µM.

As to `CS(=O)(=O)c1ccc(C2=C(c3ccccc3)C(=O)N(c3ccccc3F)C2)cc1`, half-maximal inhibition (IC50) was put at 10.8 µM.

Compound `CS(=O)(=O)c1ccc(C2=C(c3ccccc3)C(=O)N(c3ccc(F)cc3)C2)cc1` showed an IC50 of 5.86 µM.

For the compound `CS(=O)(=O)c1ccc(C2=C(c3ccc(F)cc3)C(=O)N(c3ccccc3F)C2)cc1`, the IC50 stood at 2.5 µM.

`CS(=O)(=O)c1ccc(C2=C(c3ccc(F)cc3)C(=O)N(c3ccccc3)C2)cc1` yielded an IC50 of 2.7 µM.

In turn, `CS(=O)(=O)c1ccc(C2=C(c3ccccc3)C(=O)N(c3cccc(Cl)c3)C2)cc1` returned a half-inhibitory concentration (IC50) of 9.8 µM.

For the compound `CS(=O)(=O)c1ccc(C2=C(c3ccccc3)C(=O)N(c3ccc(C(F)(F)F)cc3)C2)cc1`, the IC50 is 5.1 µM.

In the case of `COc1ccc(C2=C(c3ccc(S(C)(=O)=O)cc3)CN(c3ccccc3Cl)C2=O)cc1`, the IC50 is 2.3 µM.

In turn, `COc1ccc(N2CC(c3ccc(S(C)(=O)=O)cc3)=C(c3ccc(F)cc3)C2=O)cc1` had an IC50 of 5.28 µM.

For `CS(=O)(=O)c1ccc(C2=C(c3ccc(F)cc3)C(=O)N(c3ccc(C(F)(F)F)cc3)C2)cc1`, half-maximal inhibition (IC50) was put at 7.2 µM.

`CS(=O)(=O)c1ccc(C2=C(c3ccccc3)C(=O)N(c3ccccc3)C2)cc1`: the IC50 was found to be 2.4 µM.

Turning to `Cc1ccc(N2CC(c3ccc(S(C)(=O)=O)cc3)=C(c3ccc(F)cc3)C2=O)cc1`, the IC50 is 3.7 µM.

Consider `Cc1ccc(N2CC(c3ccc(S(C)(=O)=O)cc3)=C(c3ccccc3)C2=O)cc1`, for which the IC50 came to 6.9 µM.

For the compound `COc1ccc(C2=C(c3ccc(S(C)(=O)=O)cc3)CN(c3ccccc3)C2=O)cc1`, half-maximal inhibition (IC50) required 2.68 µM.

As to `COc1ccccc1N1CC(c2ccc(S(C)(=O)=O)cc2)=C(c2ccc(F)cc2)C1=O`, the IC50 was 4 µM. This IC50 and that of the compound before are within 1.5-fold of each other.

Take `CS(=O)(=O)c1ccc(C2=C(c3ccc(F)c(F)c3)C(=O)N(c3ccccc3)C2)cc1`: the 50% inhibitory concentration (IC50) turned out to be 8.2 µM. Against the preceding compound, the IC50 is about 2-fold higher.

Compound `COc1ccc(C2=C(c3ccc(S(C)(=O)=O)cc3)CN(c3ccc(F)cc3)C2=O)cc1` had an IC50 of 2.5 µM.

For orientation: IC50 means the midpoint of a concentration-inhibition curve.
